Experimental data: ChEMBL document CHEMBL4602603, “A review on HCV inhibitors: Significance of non-structural polyproteins” (Eur J Med Chem, 2019)

Legend:
Hepatitis C virus [1] = assay: Antiviral activity against HCV; format: functional, organism-based, Hepacivirus hominis
[2] = target: T1, Hepatitis C virus serine protease, NS3/NS4A (Hepatitis C virus, UniProt A3EZI9+D2K2A8); assay: Inhibition of HCV NS3/4a protease using Ac-DE-Dap(QXL520)-EE-Abu-shi-[COO]AS-C(5-FAMsp)-NH2 as substrate after 15 mins; format: protein-complex assay, Hepacivirus hominis
T1 sequence (D2K2A8 whole entry): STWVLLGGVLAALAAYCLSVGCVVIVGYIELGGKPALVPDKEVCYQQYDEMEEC
T1 sequence (A3EZI9 whole entry): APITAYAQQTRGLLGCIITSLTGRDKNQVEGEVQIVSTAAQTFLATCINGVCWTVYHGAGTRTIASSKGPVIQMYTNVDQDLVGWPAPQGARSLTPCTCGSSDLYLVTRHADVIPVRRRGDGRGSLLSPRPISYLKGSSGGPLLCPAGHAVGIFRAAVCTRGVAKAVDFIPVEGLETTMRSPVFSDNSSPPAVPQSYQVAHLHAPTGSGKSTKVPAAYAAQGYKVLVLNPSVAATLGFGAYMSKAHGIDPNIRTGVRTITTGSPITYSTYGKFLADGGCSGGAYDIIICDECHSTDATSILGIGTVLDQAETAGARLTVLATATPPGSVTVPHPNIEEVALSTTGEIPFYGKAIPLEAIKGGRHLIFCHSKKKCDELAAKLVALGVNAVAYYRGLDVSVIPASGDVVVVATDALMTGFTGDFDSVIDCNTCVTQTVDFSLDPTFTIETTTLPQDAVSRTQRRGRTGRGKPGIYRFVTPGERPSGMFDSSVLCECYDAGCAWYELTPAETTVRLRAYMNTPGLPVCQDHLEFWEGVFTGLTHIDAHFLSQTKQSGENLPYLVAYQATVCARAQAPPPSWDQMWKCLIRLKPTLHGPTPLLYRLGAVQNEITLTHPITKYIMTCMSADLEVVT

[3] = target: T2, RNA-directed RNA polymerase (Hepacivirus hominis, UniProt O39930); assay: Inhibition of HCV NS5B polymerase
T2 sequence (O39930 whole entry): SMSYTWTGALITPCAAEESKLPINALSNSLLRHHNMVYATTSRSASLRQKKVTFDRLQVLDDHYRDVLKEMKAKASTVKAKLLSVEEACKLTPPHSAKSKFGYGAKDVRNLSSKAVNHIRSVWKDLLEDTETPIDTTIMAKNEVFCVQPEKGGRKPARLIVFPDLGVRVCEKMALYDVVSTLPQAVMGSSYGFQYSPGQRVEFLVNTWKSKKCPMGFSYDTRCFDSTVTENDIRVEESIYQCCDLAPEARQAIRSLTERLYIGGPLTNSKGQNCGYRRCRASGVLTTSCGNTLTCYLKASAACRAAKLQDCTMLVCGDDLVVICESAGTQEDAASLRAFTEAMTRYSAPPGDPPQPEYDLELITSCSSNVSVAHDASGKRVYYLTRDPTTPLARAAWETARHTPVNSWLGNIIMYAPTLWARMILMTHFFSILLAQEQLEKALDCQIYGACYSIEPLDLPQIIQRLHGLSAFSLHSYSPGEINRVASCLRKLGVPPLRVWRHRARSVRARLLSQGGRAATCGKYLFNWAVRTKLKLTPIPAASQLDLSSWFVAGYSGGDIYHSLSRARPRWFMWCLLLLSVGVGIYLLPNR

[4] = target: T2, RNA-directed RNA polymerase; assay: Binding affinity to HCV NS5B polymerase
[5] = target: T1, Hepatitis C virus serine protease, NS3/NS4A; assay: Inhibition of HCV NS3/4a protease; format: protein-complex assay, Hepacivirus hominis
[6] = target: T1, Hepatitis C virus serine protease, NS3/NS4A; assay: Inhibition of HCV NS3/4a protease in presence Zn2+; format: protein-complex assay, Hepacivirus hominis
Hepatitis C virus [7] = assay: Antiviral activity against HCV genotype 1a; format: functional, organism-based, Hepacivirus hominis; conditions: subtype 1a
Hepatitis C virus [8] = assay: Antiviral activity against HCV genotype 1b; format: functional, organism-based, Hepacivirus hominis; conditions: subtype 1b
Hepatitis C virus [9] = assay: Antiviral activity against HCV genotype 3a; format: functional, organism-based, Hepacivirus hominis; conditions: subtype 3a

EC50 (Hepatitis C virus [1]) [nM] | Compound | also measured
1700 | O=C(N[C@@H](Cc1c[nH]c2ccc(O)cc12)c1cscn1)c1ccc2c(c1)nc(-c1ccco1)n2C1CCCCC1 | –
40 | CCCC[C@H](NC(=O)[C@@H]1[C@@H]2[C@H](CN1C(=O)[C@@H](NC(=O)NC1(CS(=O)(=O)C(C)(C)C)CCCCC1)C(C)(C)C)C2(C)C)C(=O)C(=O)NC1CC1 | Ki [2]: 6 nM
102000 | Nc1nc(C(F)(F)F)cc2c1[nH]c(=O)n2Cc1ccccc1 | –
240 | O=C1Cn2c(c(C3CCCCC3)c3ccc(C(=O)O)cc32)-c2ccccc2N1 | –
2200 | CCCCn1cc(/C=C2\Oc3cc(O)cc(O)c3C2=O)c2ccccc21 | –
– | Cc1cc2c(-c3ccc[nH]c3=O)c(C(=O)NS(=O)(=O)C3CC3)n(Cc3cc(F)ccc3F)c2cc1F | IC50 [3]: 8 nM
1 | C=C[C@@H]1C[C@]1(NC(=O)[C@@H]1C[C@@H](Oc2ncc(OC)c3ccc(Cl)cc23)CN1C(=O)[C@@H](NC(=O)OC(C)(C)C)C(C)(C)C)C(=O)NS(=O)(=O)C1CC1 | –
20000 | COCCOc1nc(N)c2[nH]c(=O)n(Cc3ccccc3)c2n1 | –
2900 | CN(C)C(=O)Cn1c(-c2ccccc2)c(C2CCCCC2)c2sc(C(=O)O)cc21 | –
400 | O=C(O)c1ccc2c(C3CCCCC3)c3n(c2c1)CCN(CCN1CCCCC1)c1ccccc1-3 | –
– | CN(C)CC1COc2ccc3nc4n(c3c2C1)CC(CN(C)C)CN4 (centres undefined) | Kd [4]: 720 nM
7.6 | O=C(O)c1ccc2c(C3CCCCC3)c3n(c2c1)CCOc1cc(OCc2cc(N4CCCC4=O)ccc2N2CCOCC2)ccc1-3 | –
9.5 | COc1ccc2c(O[C@@H]3C[C@H]4C(=O)N[C@]5(C(=O)O)C[C@H]5/C=C\CCCCC[C@H](NC(=O)OC5CCCC5)C(=O)N4C3)cc(-c3csc(NC(C)C)n3)nc2c1 | –
0.83 | COC(=O)N[C@H](C(=O)N1CCC[C@H]1c1nc2ccc(-c3ccc(-c4ccc5nc([C@@H]6CCCN6C(=O)[C@@H](NC(=O)OC)C(C)C)[nH]c5c4)cc3)cc2[nH]1)C(C)C | –
180 | Cc1ccc(NC(=O)c2c(NO)cc(-c3ccccc3)oc2=O)cc1 | –
150 | CC(C)N1CC[C@@H](N2CCn3c(c(C4CCCCC4)c4sc(C(=O)O)cc43)-c3ccccc3C2)C1 | –
– | O=C(N[C@@H](Cc1c[nH]c2ccccc12)C(=O)O)c1ccc2c(c1)nc(-c1ccoc1)n2C1CCCCC1 | IC50 [4]: 19 nM
– | O=C(NCCCc1ccccc1)c1nc2ccccc2c(=O)n1O | IC50 [4]: 8800 nM
– | CN(C)CCCn1c(N)nc2ccc3c(c21)CC(CN(C)C)O3 (centres undefined) | Kd [4]: 1700 nM

EC50 (Hepatitis C virus [1]) [nM] | Compound | also measured
270 | CC(=O)N(c1ccc(N2CCOCC2)c(COc2ccc(-c3nc4cc(C(=O)O)ccc4n3C3CCCCC3)c(F)c2)c1)C(C)C | –
– | Cn1c(Cc2nc3cc(C(N)=O)ccc3[nH]2)nc2ccc(C(=O)NC(CP(=O)(O)O)C(=O)O)cc21 (centres undefined) | Ki [5]: 1000 nM; Ki [6]: 27 nM
– | CN(C)CCCn1c(N)nc2ccccc21 | Kd [4]: > 100000 nM
– | COc1ccc2c(O[C@@H]3C[C@H]4C(=O)N[C@]5(C(=O)NS(=O)(=O)C6CC6)C[C@H]5/C=C/CCCCN(C)C(=O)[C@@H]4C3)cc(-c3nc(C(C)C)cs3)nc2c1C | IC50 [2]: 3 to 28.2 nM
– | CC[C@@H]1C[C@]1(NC(=O)[C@@H]1C[C@@H]2CN1C(=O)[C@H](C(C)(C)C)NC(=O)OCC(C)(C)CCCCc1cccc3c1CN(C3)C(=O)O2)C(=O)NS(=O)(=O)C1CC1 | IC50 (Hepatitis C virus [1]): 3 nM
– | COc1ccc2cc(O[C@@H]3C[C@@H](C(=O)NC4(C(=O)O)CC4)N(C(=O)[C@@H](NC(=O)[C@@H](NC(C)=O)C4CCCCC4)C(C)C)C3)cnc2c1 | IC50 [5]: 800 nM
– | CC1COc2cc3c(-c4ccc[nH]c4=O)c(C(=O)NS(C)(=O)=O)n(Cc4cc(F)ccc4F)c3cc21 (centres undefined) | IC50 [3]: 6 to 15 nM
400 | C/C(=C/c1cc(-c2ccc(OCc3cc(CN4CCC(O)CC4=O)ccc3-c3ccc(C#N)cc3)cc2)n(C2CCCCC2)n1)C(=O)O (centres undefined) | –
– | CC(=O)N[C@@H](C(=O)O)C(=O)N[C@@H](CCC(=O)O)C(=O)N[C@H](C(=O)N[C@@H](CCC(=O)O)C(=O)N[C@@H](CC1CCCCC1)C(=O)N[C@@H](CC(F)F)C(=O)O)C(c1ccccc1)c1ccccc1 | Ki [5]: 20 nM
38 | CN(C)CCN(C)[C@@H]1Cn2c(c(C3CCCCC3)c3ccc(C(=O)O)cc32)-c2ccccc2O1 | –
4800 | Nc1cc(Cn2c(C(=O)O)c(-c3ccc[nH]c3=O)c3ccc(Cl)cc32)ccn1 | IC50 [3]: 53 nM
50 | Cn1c(-c2ccco2)c(C2CCCCC2)c2ccc(C(=O)N[C@@H](Cc3c[nH]c4ccc(O)cc34)c3cscn3)cc21 | –
29 | COc1ccc2c(c1)[C@H]1[C@@H](CCN1CCN(C)C)CCn1c-2c(C2CCCCC2)c2ccc(C(=O)O)cc21 | –
4 | COc1ccc2c(c1)C=C(c1c(C(=O)C3C4CCCC3COC4)cnn1-c1ccncc1C)Cn1c-2c(C2CCCCC2)c2ccc(C(=O)NS(=O)(=O)C(C)C)cc21 (centres undefined) | –
52 | Cn1c(-c2ccc(OCc3cc(N4CCCC4=O)ccc3N3CCOCC3)cc2)c(C2CCCCC2)c2sc(C(=O)O)cc21 | –
– | CC(=O)N[C@@H](C(=O)O)C(=O)N[C@@H](CCC(=O)O)C(=O)N[C@H](C(=O)N[C@H](C(=O)N1C[C@H](OCc2ccccc2)C[C@H]1C(=O)NC(CS)C(=O)O)C(C)C)C1CCCCC1 (some centres undefined) | IC50 [5]: 33 nM
– | CCCC1(CC(=O)O)OCCC2c3c(CC)ccc(Cl)c3NC21 (centres undefined) | IC50 [3]: 3000 nM
– | O=C(O)C1C(c2ccccc2)c2ccccc2C(=O)N1O (centres undefined) | IC50 [4]: 15700 nM
– | CC(C)C[C@H](NC[C@H](CC(=O)O)NC(=O)[C@H](CC1CCCCC1)NC(=O)[C@@H]1CCCC[C@H]1C(=O)O)C(N)=O | IC50 [5]: 15000 nM

EC50 (Hepatitis C virus [1]) [nM] | Compound | also measured
11 | CS(=O)(=O)Nc1cccc(S(=O)(=O)NC(=O)c2c(-c3ccc[nH]c3=O)c3ccc(Cl)cc3n2Cc2ccnc(N)c2)c1 | IC50 [3]: 39 nM
1 | CCc1ccc2c(-c3ccc[nH]c3=O)c(C(=O)NS(=O)(=O)C3CC3)n(Cc3cc([N+](=O)[O-])ccc3F)c2c1 | –
– | COC(=O)N[C@H](C(=O)N1C[C@H](C)C[C@@H]1c1nc2sc(-c3ccc(-c4ccc(-c5c[nH]c([C@@H]6[C@H](C)CCN6C(=O)[C@H](NC(=O)OC)C(C)C)n5)cc4)cc3)cc2[nH]1)C(C)C | EC50 (Hepatitis C virus [7]): 0.017 nM; EC50 (Hepatitis C virus [8]): 0.008 nM
130 | Cc1c(C(=O)O)sc2c(C3CCCCC3)c(-c3ccccc3)n(CC(=O)N(C)C3CCN(C(C)C)C3)c12 (centres undefined) | –
120 | CCN(CC)C1CCN(C(=O)Cn2c(-c3ccco3)c(C3CCCCC3)c3ccc(C(=O)NS(=O)(=O)N(C)C)cc32)CC1 | –
– | CC(=O)N[C@@H](C(=O)O)C(=O)N[C@@H](CCC(=O)O)C(=O)N[C@H](C(=O)N[C@@H](CCC(=O)O)C(=O)N[C@@H](CC1CCCCC1)C(=O)N[C@@H](CS)C(=O)O)C(c1ccccc1)c1ccccc1 | Ki [5]: 40 nM
800 | CCN(CC)C1CCN(C(=O)Cn2c(-c3ccccc3)c(C3CCCCC3)c3ccc(C(=O)O)cc32)CC1 | –
– | CC(C)C[C@H](NC(=O)[C@H](CC(=O)O)NC(=O)OC(C)C)C(=O)N[C@@H](CC(F)(F)F)C(=O)NCCc1ccc(C(=O)O)cc1Cl | Ki [5]: 600 nM
90 | Cc1ccc2c(-c3ccc[nH]c3=O)c(C(=O)NS(=O)(=O)C3CC3)n(Cc3cc(F)ccc3F)c2c1 | IC50 [3]: 5 nM
– | C=C[C@H]1C[C@]1(NC(=O)[C@@H]1C[C@@H]2CN1C(=O)[C@H](C(C)(C)C)NC(=O)O[C@@H]1C[C@H]1CCCCCc1c(nc3ccccc3c1OC1CC3CCC(C1)N3C)O2)C(=O)NS(=O)(=O)C1(C)CC1 (some centres undefined) | EC50 (Hepatitis C virus [8]): 0.62 nM; EC50 (Hepatitis C virus [9]): 0.26 nM
– | CC(=O)N[C@@H](C(=O)O)C(=O)N[C@@H](CCC(=O)O)C(=O)N[C@H](C(=O)N[C@H](C(=O)N1C[C@H](OCc2ccccc2)C[C@H]1C(=O)NC1(C(=O)O)CC1)C(C)C)C1CCCCC1 | IC50 [5]: 51 nM
– | N#Cc1c(Cl)cc(Cl)cc1COc1cccc(C(=O)/C=C(\O)C(=O)O)c1 | IC50 [4]: 45000 nM
140 | CN(C)CCN1CCn2c(c(C3CCCCC3)c3ccc(C(=O)O)cc32)-c2ccccc2C1 | –
100000 | CCc1nc2c(N)nc3ccccc3c2n1CCCCNS(C)(=O)=O [CPG-52852] | –
17.5 | CC(C)(C)OC(=O)N[C@H]1CCCCC/C=C\[C@@H]2C[C@@]2(C(=O)NS(=O)(=O)C2CC2)NC(=O)[C@@H]2C[C@@H](OC(=O)N3Cc4cccc(F)c4C3)CN2C1=O [DANOPREVIR] | IC50 [2]: 0.2 to 3.5 nM
9.5 | C=C[C@@H]1C[C@]1(NC(=O)[C@@H]1C[C@@H]2CN1C(=O)[C@H](C(C)(C)C)NC(=O)O[C@@H]1C[C@H]1CCCCCc1nc3ccc(OC)cc3nc1O2)C(=O)NS(=O)(=O)C1CC1 [GRAZOPREVIR ANHYDROUS] | –
1000 | CC(C)Cn1cnc2c(N)nc3ccccc3c21 [IMIQUIMOD] | –
82 | COc1ccc2c(c1)C=C1Cn3c-2c(C2CCCCC2)c2ccc(cc23)C(=O)NS(=O)(=O)N(C)CCOCCN(C)C1=O [TMC-647055] | –
